Experiments:
mouse TLR7 = target: T1, mouse TLR7 (Mus musculus, UniProt P58681); assay: HEK293 SEAP reporter assay, TLR panel (Example 10); type: cell-based; details: 16 hrs
T1 construct: host or cells: HEK293
T1 sequence (P58681 27-1050): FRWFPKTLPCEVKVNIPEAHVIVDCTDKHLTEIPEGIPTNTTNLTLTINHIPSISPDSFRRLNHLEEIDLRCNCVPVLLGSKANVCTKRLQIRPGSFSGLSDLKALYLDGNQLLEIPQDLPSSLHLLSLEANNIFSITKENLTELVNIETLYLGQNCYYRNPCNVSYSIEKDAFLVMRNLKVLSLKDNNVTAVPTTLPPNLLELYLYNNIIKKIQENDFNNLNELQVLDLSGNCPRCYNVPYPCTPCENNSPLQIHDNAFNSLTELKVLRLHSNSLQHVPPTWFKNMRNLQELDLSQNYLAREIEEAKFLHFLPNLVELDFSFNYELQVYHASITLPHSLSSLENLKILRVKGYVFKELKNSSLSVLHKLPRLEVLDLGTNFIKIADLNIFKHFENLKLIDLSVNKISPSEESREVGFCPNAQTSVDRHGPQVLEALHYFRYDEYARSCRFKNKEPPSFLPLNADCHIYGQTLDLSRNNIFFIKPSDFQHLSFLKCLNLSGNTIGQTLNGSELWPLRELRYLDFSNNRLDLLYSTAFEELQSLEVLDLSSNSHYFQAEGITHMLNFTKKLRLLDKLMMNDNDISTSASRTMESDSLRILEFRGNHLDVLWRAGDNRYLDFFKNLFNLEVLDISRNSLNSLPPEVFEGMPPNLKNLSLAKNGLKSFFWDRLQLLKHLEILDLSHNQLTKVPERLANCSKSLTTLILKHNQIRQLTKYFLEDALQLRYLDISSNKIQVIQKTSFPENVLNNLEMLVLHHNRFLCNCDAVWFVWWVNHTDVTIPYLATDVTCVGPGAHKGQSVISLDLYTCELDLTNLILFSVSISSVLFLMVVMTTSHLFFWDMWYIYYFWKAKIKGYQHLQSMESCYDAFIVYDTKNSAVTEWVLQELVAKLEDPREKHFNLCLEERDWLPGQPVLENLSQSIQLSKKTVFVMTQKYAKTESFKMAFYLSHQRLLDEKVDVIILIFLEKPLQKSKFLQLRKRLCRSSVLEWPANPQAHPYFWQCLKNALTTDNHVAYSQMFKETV
Excerpt: (§1) In this example, the activity of the compound 10 to stimulate different human and mouse TLR pathways was investigated on HEK293 cells transfected with inducible SEAP (secreted embryonic alkaline phosphatase) reporter genes and also expressing different human TLRs (TLR2, TLR3, TLR4, TLR5, TLR7, TLR8, TLR9) or mouse TLRs (TLR2, TLR3, TLR4, TLR5, TLR7, TLR8, TLR13).
(§2) HEK293 reporter cell lines were purchased from Invivogen and cell lines were maintained in manufacture recommended culture medium with required supplemental antibiotics. On the day of assay, the cells were harvested with Accutase and counted by the Vi-CELL Cell Viability Analyzers. Cells were resuspended in HEK blue detection medium and a total of 10000 cells were seeded in each well of a 384-well flat bottom plate. Serial dilutions of compound 10 and compound 1 was added into treatment wells. Assay plates were cultured at 37° C. in a CO2 incubator for 16 hrs. HEK-Blue™ Detection medium changes to a purple/blue color in the presence of secreted SEAP, which can be detected by spectrophotometry at 620-655 nm. Data was fitted with non-linear regression analysis, using a log(inhibitor) vs. response-variable slope, 3-parameter fit with GraphPad Prism.

human TLR7 = target: T2, human TLR7 (Homo sapiens, UniProt Q9NYK1); assay: HEK293 SEAP reporter assay, TLR panel (Example 10); type: cell-based; details: 16 hrs
T2 construct: host or cells: HEK293
T2 sequence (Q9NYK1 27-1049): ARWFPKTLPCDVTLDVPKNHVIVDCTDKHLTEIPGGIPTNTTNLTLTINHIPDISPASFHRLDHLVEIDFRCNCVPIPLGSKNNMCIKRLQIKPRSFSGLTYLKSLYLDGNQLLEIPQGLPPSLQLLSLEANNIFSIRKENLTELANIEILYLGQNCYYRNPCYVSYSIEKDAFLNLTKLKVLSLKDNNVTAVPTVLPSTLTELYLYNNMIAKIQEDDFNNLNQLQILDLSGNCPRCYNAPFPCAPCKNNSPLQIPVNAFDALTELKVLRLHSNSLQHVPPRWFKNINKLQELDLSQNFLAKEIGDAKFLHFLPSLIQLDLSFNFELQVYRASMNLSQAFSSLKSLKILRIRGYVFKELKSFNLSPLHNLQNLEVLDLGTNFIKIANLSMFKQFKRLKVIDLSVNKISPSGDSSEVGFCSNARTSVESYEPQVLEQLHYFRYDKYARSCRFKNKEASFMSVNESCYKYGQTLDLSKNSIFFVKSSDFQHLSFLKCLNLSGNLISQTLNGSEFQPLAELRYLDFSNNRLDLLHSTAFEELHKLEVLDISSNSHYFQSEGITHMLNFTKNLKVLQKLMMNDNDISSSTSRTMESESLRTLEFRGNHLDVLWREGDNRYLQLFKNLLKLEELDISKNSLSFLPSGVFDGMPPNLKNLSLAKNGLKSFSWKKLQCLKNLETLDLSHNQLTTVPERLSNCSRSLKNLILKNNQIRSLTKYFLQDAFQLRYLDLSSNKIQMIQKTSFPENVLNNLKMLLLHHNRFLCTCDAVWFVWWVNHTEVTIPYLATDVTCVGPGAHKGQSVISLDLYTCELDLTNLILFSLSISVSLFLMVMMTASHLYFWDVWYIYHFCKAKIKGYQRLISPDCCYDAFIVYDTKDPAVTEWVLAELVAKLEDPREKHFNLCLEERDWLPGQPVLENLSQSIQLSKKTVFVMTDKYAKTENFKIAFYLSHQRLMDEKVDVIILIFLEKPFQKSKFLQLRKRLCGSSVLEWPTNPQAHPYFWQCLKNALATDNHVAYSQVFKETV
Excerpt: as §1, §2

Compound	EC50 (mouse TLR7)	EC50 (human TLR7)
CCCCCNc1nc(N)nc2ccn(Cc3ccc(CN4CCNCC4)cc3OC)c12 [Compound 1, 5-(2-methoxy-4-(piperazin-1-ylmethyl)benzyl)-N4-pentyl-5H-pyrrolo[3,2-d]pyrimidine-2,4-diamine, reference compound]	2.6 nM	2.17 nM
CCCCCNc1nc(N)nc2ccn(Cc3ccc(CN4CC5(CNCCO5)C4)cc3OC)c12 [Compound 10, 5-[[2-methoxy-4-(5-oxa-2,8-diazaspiro[3.5]nonan-2-ylmethyl)phenyl]methyl]-N4-pentyl-pyrrolo[3,2-d]pyrimidine-2,4-diamine]	22.9 nM	11 nM

Reference: patent publication US12534465B2, “5H-pyrrolo[3,2-d]pyrimidine-2,4-diamino compounds and antibody conjugates thereof” (SUTRO BIOPHARMA, INC., priority 2019, dated 2026)
